Results as given in patent US8883792B2, “Substituted isoquinoline derivative” (D. Western Therapeutics Institute, Inc., priority 2010, dated 2014).
Where a name gives a salt, the structure may show the parent alone.

Test system: rabbits (New Zealand White)
Assay: Ocular hypotensive effect in rabbits
Type: in vivo, rabbit
Conditions: male New Zealand White rabbits, 0.04 mL eye drop, concentration of 1% (w/v) or lower, maximum ocular hypotensive rate vs vehicle-treated contralateral eye
Experimental: The compound of the present invention was administered to rabbits (New Zealand White, sex: male, 3 to 6 per group) and evaluated for its ocular hypotensive effect.
Each test compound was dissolved in a vehicle 1 (1.04 g of sodium dihydrogen phosphate dihydrate and 0.5 g of sodium chloride dissolved in purified water and then adjusted to pH 7.0 with sodium hydroxide to make the total amount to 100 mL) or a vehicle 2 (2% (w/v) aqueous boric acid solution) to prepare a test compound solution with a predetermined concentration.
The intraocular pressures of the rabbits were measured using Tiolat TonoVet handheld tonometer immediately before administration of test compound. The test compound solution and the vehicle were dropped at a volume of 0.04 mL to one eye and the contralateral eye, respectively, and the intraocular pressures were measured over time in the same way as above. The rate of the intraocular pressure of the eye receiving the test compound solution to that of the eye receiving the vehicle was calculated as an ocular hypotensive rate.

SMILES: C=C(C)CNC[C@@H](C)NS(=O)(=O)c1ccc2cnccc2c1.Cl [Example 78, (R)—N-{1-(2-methylallylamino)propan-2-yl}isoquinoline-6-sulfonamide hydrochloride]
- Ocular hypotensive activity: ++ (maximum ocular hypotensive rate of 15% or more)

SMILES: C[C@H](CNC/C=C/c1ccc(Br)cc1)NS(=O)(=O)c1ccc2cnccc2c1 [Example 43, (R, E)-N-[1-{3-(4-bromophenyl)allylamino}propan-2-yl]isoquinoline-6-sulfonamide dihydrochloride]
- Ocular hypotensive activity: ++ (maximum ocular hypotensive rate of 15% or more)

SMILES: C[C@H](CNC(=O)Cc1ccccc1)NS(=O)(=O)c1ccc2cnccc2c1.Cl [Example 103, (R)—N-{2-(isoquinoline-6-sulfonamido)propyl}-2-phenylacetamide hydrochloride]
- Ocular hypotensive activity: ++ (maximum ocular hypotensive rate of 15% or more)

SMILES: C[C@H](CNCCC1CCCCC1)NS(=O)(=O)c1ccc2cnccc2c1 [Example 33, (R)—N-{1-(2-cyclohexylethylamino)propan-2-yl}isoquinoline-6-sulfonamide dihydrochloride]
- Ocular hypotensive activity: ++ (maximum ocular hypotensive rate of 15% or more)

SMILES: C=CCNCCNS(=O)(=O)c1ccc2cnccc2c1 [Example 10, N-{2-(allylamino)ethyl}isoquinoline-6-sulfonamide dihydrochloride]
- Ocular hypotensive activity: ++ (maximum ocular hypotensive rate of 15% or more)

SMILES: C[C@H](CNCCc1cccnc1)NS(=O)(=O)c1ccc2cnccc2c1.Cl [Example 49, (R)—N-[1-{2-(pyridin-3-yl)ethylamino}propan-2-yl]isoquinoline-6-sulfonamide hydrochloride]
- Ocular hypotensive activity: ++ (maximum ocular hypotensive rate of 15% or more)

SMILES: C[C@H](CNCCc1ccc([N+](=O)[O-])cc1)NS(=O)(=O)c1ccc2cnccc2c1.Cl [Example 59, (R)—N-{1-(4-nitrophenethylamino)propan-2-yl}isoquinoline-6-sulfonamide hydrochloride]
- Ocular hypotensive activity: ++ (maximum ocular hypotensive rate of 15% or more)

SMILES: COc1ccccc1CCNC[C@@H](C)NS(=O)(=O)c1ccc2cnccc2c1 [Example 28, (R)—N-{1-(2-methoxyphenethylamino)propan-2-yl}isoquinoline-6-sulfonamide dihydrochloride]
- Ocular hypotensive activity: ++ (maximum ocular hypotensive rate of 15% or more)

SMILES: CC(C)CNC[C@@H](C)NS(=O)(=O)c1ccc2cnccc2c1 [Example 14, (R)—N-{1-(isobutylamino)propan-2-yl}isoquinoline-6-sulfonamide dihydrochloride]
- Ocular hypotensive activity: ++ (maximum ocular hypotensive rate of 15% or more)

SMILES: N[C@H](CNS(=O)(=O)c1ccc2cnccc2c1)Cc1ccccc1 [Example 116, (S)—N-(2-amino-3-phenylpropyl)isoquinoline-6-sulfonamide dihydrochloride]
- Ocular hypotensive activity: + (maximum ocular hypotensive rate of 5% or more and less than 15%)

SMILES: C[C@H](CNCc1ccccc1)NS(=O)(=O)c1ccc2cnccc2c1 [Example 1, (R)—N-{1-(benzylamino)propan-2-yl}isoquinoline-6-sulfonamide dihydrochloride]
- Ocular hypotensive activity: ++ (maximum ocular hypotensive rate of 15% or more)

SMILES: C[C@H](CN(CCc1ccccc1)C(=O)CN)NS(=O)(=O)c1ccc2cnccc2c1.Cl [Example 100, (R)-2-amino-N-[2-(isoquinoline-6-sulfonamido)propyl]-N-phenylethylacetamide hydrochloride]
- Ocular hypotensive activity: ++ (maximum ocular hypotensive rate of 15% or more)

SMILES: C[C@H](CNCCc1nnn[nH]1)NS(=O)(=O)c1ccc2cnccc2c1 [Example 95, (R)—N-[1-{2-(1H-tetrazol-5-yl)ethylamino}propan-2-yl]isoquinoline-6-sulfonamide dihydrochloride]
- Ocular hypotensive activity: + (maximum ocular hypotensive rate of 5% or more and less than 15%)

SMILES: CC(C)[C@H](CNCCc1ccccc1)NS(=O)(=O)c1ccc2cnccc2c1 [Example 27, (R)—N-{3-methyl-1-(phenethylamino)butan-2-yl}isoquinoline-6-sulfonamide dihydrochloride]
- Ocular hypotensive activity: ++ (maximum ocular hypotensive rate of 15% or more)

SMILES: C[C@H](CNCC(O)COc1ccccc1)NS(=O)(=O)c1ccc2cnccc2c1 (stereo partly drawn) [Example 108, N-{(2R)-1-(2-hydroxy-3-phenoxypropylamino)propan-2-yl}isoquinoline-6-sulfonamide dihydrochloride]
- Ocular hypotensive activity: ++ (maximum ocular hypotensive rate of 15% or more)

SMILES: C[C@@H](CNCCc1c[nH]c2ccccc12)NS(=O)(=O)c1ccc2cnccc2c1.Cl [Example 37, (S)—N-[1-{2-(1H-indol-3-yl)ethylamino}propan-2-yl]isoquinoline-6-sulfonamide hydrochloride]
- Ocular hypotensive activity: ++ (maximum ocular hypotensive rate of 15% or more)

SMILES: CCCNCC[C@@H](C)NS(=O)(=O)c1ccc2cnccc2c1 [Example 12, (R)—N-{4-(propylamino)butan-2-yl}isoquinoline-6-sulfonamide dihydrochloride]
- Ocular hypotensive activity: ++ (maximum ocular hypotensive rate of 15% or more)

SMILES: C[C@H](CNCC(O)c1cccc(Cl)c1)NS(=O)(=O)c1ccc2cnccc2c1 (stereo partly drawn) [Example 91, N-[(2R)-1-{2-(3-chlorophenyl)-2-hydroxyethylamino}propan-2-yl]isoquinoline-6-sulfonamide dihydrochloride]
- Ocular hypotensive activity: ++ (maximum ocular hypotensive rate of 15% or more)

SMILES: CCCCNC[C@H](C)NS(=O)(=O)c1ccc2cnccc2c1 [Example 6, (S)—N-{1-(butylamino)propan-2-yl}isoquinoline-6-sulfonamide dihydrochloride]
- Ocular hypotensive activity: ++ (maximum ocular hypotensive rate of 15% or more)

SMILES: Cc1ncsc1CCNC[C@@H](C)NS(=O)(=O)c1ccc2cnccc2c1 [Example 79, (R)—N-[1-{2-(4-methylthiazol-5-yl)ethylamino}propan-2-yl]isoquinoline-6-sulfonamide dihydrochloride]
- Ocular hypotensive activity: ++ (maximum ocular hypotensive rate of 15% or more)

SMILES: C[C@H](CNCC(C)(O)c1ccccc1)NS(=O)(=O)c1ccc2cnccc2c1.Cl (stereo partly drawn) [Example 85, N-{(2R)-1-(2-hydroxy-2-phenylpropylamino)propan-2-yl}isoquinoline-6-sulfonamide hydrochloride]
- Ocular hypotensive activity: ++ (maximum ocular hypotensive rate of 15% or more)

SMILES: C[C@H](CNC1CC1)NS(=O)(=O)c1ccc2cnccc2c1 [Example 15, (R)—N-{1-(cyclopropylamino)propan-2-yl}isoquinoline-6-sulfonamide dihydrochloride]
- Ocular hypotensive activity: ++ (maximum ocular hypotensive rate of 15% or more)

SMILES: Cl.O=S(=O)(NCCNCCc1ccccc1)c1ccc2cnccc2c1 [Example 32, N-{2-(phenethylamino)ethyl}isoquinoline-6-sulfonamide hydrochloride]
- Ocular hypotensive activity: ++ (maximum ocular hypotensive rate of 15% or more)

SMILES: C[C@H](CNCCc1c[nH]nn1)NS(=O)(=O)c1ccc2cnccc2c1.Cl [Example 94, (R)—N-[1-{2-(1H-1,2,3-triazol-4-yl)ethylamino}propan-2-yl]isoquinoline-6-sulfonamide hydrochloride]
- Ocular hypotensive activity: ++ (maximum ocular hypotensive rate of 15% or more)

SMILES: C[C@H](CNC1CCCCC1)NS(=O)(=O)c1ccc2cnccc2c1.Cl [Example 61, (R)—N-{1-(cyclohexylamino)propan-2-yl}isoquinoline-6-sulfonamide hydrochloride]
- Ocular hypotensive activity: ++ (maximum ocular hypotensive rate of 15% or more)

SMILES: C[C@H](CNCCc1cccc(Cl)c1)NS(=O)(=O)c1ccc2cnccc2c1 [Example 54, (R)—N-{1-(3-chlorophenethylamino)propan-2-yl}isoquinoline-6-sulfonamide hydrochloride]
- Ocular hypotensive activity: ++ (maximum ocular hypotensive rate of 15% or more)

SMILES: C[C@H](CNCCc1ccccc1)NS(=O)(=O)c1ccc2c(SCCN)nccc2c1 [Example 111, (R)-1-(2-aminoethylthio)-N-{1-(phenethylamino)propan-2-yl}isoquinoline-6-sulfonamide trihydrochloride]
- Ocular hypotensive activity: + (maximum ocular hypotensive rate of 5% or more and less than 15%)

SMILES: CO[C@H](CNC[C@@H](C)NS(=O)(=O)c1ccc2cnccc2c1)c1ccccc1.Cl [Example 48, N—[(R)-1-{(S)-2-methoxy-2-phenylethylamino}propan-2-yl]isoquinoline-6-sulfonamide hydrochloride]
- Ocular hypotensive activity: ++ (maximum ocular hypotensive rate of 15% or more)

SMILES: C[C@H](CNCCC#N)NS(=O)(=O)c1ccc2cnccc2c1.Cl [Example 73, (R)—N-{1-(2-cyanoethylamino)propan-2-yl}isoquinoline-6-sulfonamide hydrochloride]
- Ocular hypotensive activity: ++ (maximum ocular hypotensive rate of 15% or more)

SMILES: Cc1cccc(CCNC[C@@H](C)NS(=O)(=O)c2ccc3cnccc3c2)c1.Cl [Example 57, (R)—N-{1-(3-methylphenethylamino)propan-2-yl}isoquinoline-6-sulfonamide hydrochloride]
- Ocular hypotensive activity: ++ (maximum ocular hypotensive rate of 15% or more)

SMILES: C[C@H](CNCCc1ccccc1Cl)NS(=O)(=O)c1ccc2cnccc2c1 [Example 38, (R)—N-{1-(2-chlorophenethylamino)propan-2-yl}isoquinoline-6-sulfonamide dihydrochloride]
- Ocular hypotensive activity: ++ (maximum ocular hypotensive rate of 15% or more)

SMILES: C[C@H](CNCCc1ccncc1)NS(=O)(=O)c1ccc2cnccc2c1 [Example 42, (R)—N-[1-{2-(pyridin-4-yl)ethylamino}propan-2-yl]isoquinoline-6-sulfonamide trihydrochloride]
- Ocular hypotensive activity: + (maximum ocular hypotensive rate of 5% or more and less than 15%)
